The record followed here is PMC6364417, “Kinase inhibitor library screening identifies synergistic drug combinations effective in sensitive and resistant melanoma cells” (Journal of Experimental & Clinical Cancer Research : CR, 2019).

Assay in all cases: Kinase inhibitor library screening, PrestoBlue cell viability, 1 or 10 μM, 72 h
One data set deals with 501Mel cells (parental). Conditions: 72 h. The gist of the method:
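Treatment: 72 h with inhibitor. Detection: PrestoBlue, plate reader. Output: viability as % untreated control. Replicates: duplicate minimum. Lines: parental plus Vemurafenib- or Dabrafenib-resistant derivatives.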

Data set [1] has as its system 501Mel-GP cells (Dabrafenib-resistant). Conditions: 72 h.
The subject of data set [2] is 501Mel-XP cells (Vemurafenib-resistant). Conditions: 72 h.
A further data set has as its system A375 cells (parental).
The test system of data set [3] is A375-GP cells (Dabrafenib-resistant).
The subject of data set [4] is A375-XP cells (Vemurafenib-resistant).
For another data set, the system named is IGR37 cells (parental).
For data set [5], the system named is IGR37-GP cells (Dabrafenib-resistant).
Data set [6] has as its system IGR37-XP cells (Vemurafenib-resistant).

The structures appear in SMILES notation.

`COCC(=O)NC/C=C/c1ccc2ncnc(Nc3ccc(Oc4ccc(C)nc4)c(C)c3)c2c1` [CP-724714]: the viability at 1 µM amounted to 105% with 501Mel cells (parental) (Homo sapiens, read-out: cell viability, 501Mel Parental, 1μΜ); 109% in [1] (Homo sapiens, read-out: cell viability, 501Mel GP, 1μΜ); 101% in data set [2] (Homo sapiens, read-out: cell viability, 501Mel XP, 1μΜ); 101% with A375 cells (parental) (Homo sapiens, A-375, 72 h, read-out: cell viability, A375 Parental, 1μΜ); 103% in data set [3] (Homo sapiens, A-375, 72 h, read-out: cell viability, A375 GP, 1μΜ); 109% in data set [4] (Homo sapiens, A-375, 72 h, read-out: cell viability, A375 XP, 1μΜ). The viability at 1 µM came out at 101% in the data set with IGR37 cells (parental) (Homo sapiens, IGR-37, 72 h, read-out: cell viability, IGR37 Parental, 1μΜ); 91.8% in data set [5] (Homo sapiens, IGR-37, 72 h, read-out: cell viability, IGR37 GP, 1μΜ); 89.5% in data set [6] (Homo sapiens, IGR-37, 72 h, read-out: cell viability, IGR37 XP, 1μΜ). Also, the viability at 10 µM in the data set on 501Mel cells (parental) (Homo sapiens, read-out: cell viability, 501Mel Parental, 10μΜ) came to 102%; in data set [1] (Homo sapiens, read-out: cell viability, 501Mel GP, 10μΜ), 87.4%; in data set [2] (Homo sapiens, read-out: cell viability, 501Mel XP, 10μΜ), 77.8%; in the data set on A375 cells (parental) (Homo sapiens, A-375, 72 h, read-out: cell viability, A375 Parental, 10μΜ), 90.2%; in data set [3] (Homo sapiens, A-375, 72 h, read-out: cell viability, A375 GP, 10μΜ), 95.4%; in data set [4] (Homo sapiens, A-375, 72 h, read-out: cell viability, A375 XP, 10μΜ) it was 103%. For the same molecule, the viability at 10 µM was 98% in the data set with IGR37 cells (parental) (Homo sapiens, IGR-37, 72 h, read-out: cell viability, IGR37 Parental, 10μΜ); 86.1% in [5] (Homo sapiens, IGR-37, 72 h, read-out: cell viability, IGR37 GP, 10μΜ); 52.3% in data set [6] (Homo sapiens, IGR-37, 72 h, read-out: cell viability, IGR37 XP, 10μΜ).

Consider `Nc1ncnc2c1c(-c1cccc(OCc3ccccc3)c1)cn2C1CC(CN2CCCC2)C1` (stereo not shown) [NVP-ADW742], for which the “cell viability, 501Mel Parental, 1μΜ” value in the data set with 501Mel cells (parental) (501Mel Parental, 1μΜ, in %) turned out to be 80.8. The “cell viability, 501Mel Parental, 10μΜ” value with 501Mel cells (parental) (501Mel Parental, 10μΜ, in %) was found to be 0.529. In addition, in [1] (501Mel GP, 1μΜ, in %), the “cell viability, 501Mel GP, 1μΜ” value was found to be 91.7. Besides, the “cell viability, 501Mel GP, 10μΜ” value in data set [1] (501Mel GP, 10μΜ, in %) is given as -0.2. The “cell viability, 501Mel XP, 1μΜ” value in data set [2] (501Mel XP, 1μΜ, in %) is 82.0. Also, the “cell viability, 501Mel XP, 10μΜ” value in data set [2] (501Mel XP, 10μΜ, in %) is -0.346. Also, the “cell viability, A375 Parental, 1μΜ” value in the data set with A375 cells (parental) (A375 Parental, 1μΜ, 72 h, in %) is on record as 89.6. Moreover, in the data set on A375 cells (parental) (A375 Parental, 10μΜ, 72 h, in %), the “cell viability, A375 Parental, 10μΜ” value came out at 25.2. For the same molecule, the “cell viability, A375 GP, 1μΜ” value in [3] (A375 GP, 1μΜ, 72 h, in %) was 57.9. Further, the “cell viability, A375 GP, 10μΜ” value in [3] (A375 GP, 10μΜ, 72 h, in %) amounted to 20.2. For the same molecule, in data set [4] (A375 XP, 1μΜ, 72 h, in %), the “cell viability, A375 XP, 1μΜ” value is 90.5. In data set [4] (A375 XP, 10μΜ, 72 h, in %), the “cell viability, A375 XP, 10μΜ” value came to 13.9. The “cell viability, IGR37 Parental, 1μΜ” value in the data set with IGR37 cells (parental) (IGR37 Parental, 1μΜ, 72 h, in %) is reported as 110.2. For the same molecule, the “cell viability, IGR37 Parental, 10μΜ” value in the data set with IGR37 cells (parental) (IGR37 Parental, 10μΜ, 72 h, in %) came to 0.537. Further, in data set [5] (IGR37 GP, 10μΜ, 72 h), the cell viability, IGR37 GP, 10μΜ amounted to 1.6%. For the same molecule, in data set [5] (IGR37 GP, 1μΜ, 72 h, in %), the “cell viability, IGR37 GP, 1μΜ” value was determined as 83.7. Further, in data set [6] (IGR37 XP, 10μΜ, 72 h), the cell viability, IGR37 XP, 10μΜ was 1.2%. For the same molecule, the “cell viability, IGR37 XP, 1μΜ” value in [6] (IGR37 XP, 1μΜ, 72 h, in %) is 78.5.

Consider `CN(C[C@@H]1COCCO1)S(=O)(=O)Nc1ccc2ccc3ncc(-c4cnn(C)c4)cc3c(=O)c2c1` [MK-2461], for which the “cell viability (kinase inhibitor library screening)” value was found to be 102.9% in the data set on 501Mel cells (parental) (501Mel Parental, 1μΜ); 83.3% with 501Mel cells (parental) (501Mel Parental, 10μΜ); 90.6% in [1] (501Mel GP, 1μΜ); 45.5% in [1] (501Mel GP, 10μΜ); 77.5% in [2] (501Mel XP, 1μΜ); 30.0% in [2] (501Mel XP, 10μΜ). Further, the “cell viability (kinase inhibitor library screening)” value in the data set with A375 cells (parental) (A375 Parental, 10μΜ, 72 h) amounted to 78.1%; with A375 cells (parental) (A375 Parental, 1μΜ, 72 h) it was 106.3%; in [3] (A375 GP, 10μΜ, 72 h), 78.6%; in [4] (A375 XP, 1μΜ, 72 h) it was 106.1%; in data set [4] (A375 XP, 10μΜ, 72 h), 88.4%; in the data set on IGR37 cells (parental) (IGR37 Parental, 1μΜ, 72 h) it was 103.2%. The “cell viability (kinase inhibitor library screening)” value with IGR37 cells (parental) (IGR37 Parental, 10μΜ, 72 h) is recorded as 84.5%; in data set [5] (IGR37 GP, 10μΜ, 72 h) it was 28.3%; in [6] (IGR37 XP, 1μΜ, 72 h), 99.3%; in data set [6] (IGR37 XP, 10μΜ, 72 h), 6.5%.

What is called viability is a read-out of living cells in per cent, often relative to untreated cells.
